For one data set, the system named is HIV. Briefly: Inhibition of HIV-associated cytopathic effect (CPE) in T-45 cells. The data set is classed as cell-based. Particulars: HIV infected T-45 cells, various concentrations (Fig. 3); result in words. As to the method: FIG. 3 is a graphical representation in which the inhibition of HIV associated CPE (―% CPE) reduction) and test compound-associated cytotoxicity (---% cell death) is plotted against the media concentration in mg/ml of several test compounds (drugs). The cell viability data was determined for non-HIV infected cells. The test compounds were the N-methyl-, N-ethyl-, and N-butyl derivatives of deoxynojirimycin (DNJ), castanospermine (Cast), N-(5-carboxymethyl-1-pentyl)-1,5-imino-L-fucitol (LFT) and 1,4-dideoxy-1,4-imino-L-arabinitol (LAB).
After a suitable period of incubation, the cultures are scored for the presence of so-called syncytial cells (giant cells). Typical examples of such a test for the evaluation of inhibitors of HIV have been disclosed by Fung et al., Bio/Technology 5, 940-946 (1987); Tyms et al., Lancet, October 31, 1987, pp. 1025-1026; Gruters et al., Nature 330, 74-77 (1987); and Walker et al., Proc. Natl. Acad. Sci. USA 84, 8120-8124 (1987).
(§1) The efficacy of the test compounds used in this example was assessed as follows: 0.2 ml of culture medium containing 10^4 T-45 cells were transferred into each well of a 96-well flat-bottomed tissue-culture plastic plate and the cells were allowed to settle at 37°C (see Figure 1). After 4 hours the media were aspirated and replaced with media which contained the test compound. Following overnight incubation the media was aspirated and 10^4 TCID of virus (HIV-1 or HIV-2) was added to each well. Incubation was continued at 37°C in 5% CO2 for 1 hour. Thereafter, growth media containing the various compounds were added and incubation at 37°C was continued. On the fourth day the cell suspensions from each well were split and seeded into two new wells and 0.2 ml of fresh media with compounds was added. This was repeated on the seventh day. Cells were examined by microscopy during days 1 to 10 for the presence of syncytia, growth rate and the appearance of the cytopathic effect (CPE) (giant cells, pycnotic nuclei, loss of refractility). CPE (100%) was defined as no round, refractile, uniform cells remaining; only giant, ballooned pyknotic cells were present. The viability of HIV infected cultures was determined by a rough count/estimate of cells which underwent CPE in relation to round refractile uniform (normal) cells in a given culture. Cells in wells which were incubated with compounds which appeared to inhibit or reduce HIV replication and in which there was marked cell proliferation were either transferred to larger wells (of a 24-well plate) or divided in order to maintain an approximate constant cell density to promote continuous cell division.

A further data set concerns T-45 cells. The format is cell-based, human. The following applies: for Estimated Cell Growth Virus-uninfected Day 7: no-drug control 1.2x10^6; for cytotoxicity: non-infected cells, over the concentration range used (Fig. 3, Table 1), result in words. As to the method:
FIG. 1 is a schematic outline of the test procedure used to assess the cytotoxic effect of test compounds on T-cells either infected or non-infected with HIV and in parallel the HIV inhibitory activity of the test compounds. TCID is the tissue culture infectious dose. Cells were cultured in RPMI-1640 medium with 10% fetal calf serum containing 100 units/ml penicillin G and 100 µg/ml streptomycin.
(§2) The assay was run in 96 well plastic microtiter plates in which 0.2 ml of culture medium containing 10^4 T-cells are seeded into each well. RPMI-1640 supplemented with 10% fetal calf serum was used as the culture medium. In each assay, 6 wells are used. Three (1-3) are infected with 10^4 TCID/well of HIV-1 or HIV-2 and to the other three (4-6) culture medium alone is added. Medium is changed at the same intervals for each test compound. The detailed assay procedure is illustrated in Figures 1 and 2.
as §1, with “culture.” for “culture. Cells in wells which were incubated with compounds which appeared to inhibit or reduce HIV replication and in which there was marked cell proliferation were either transferred to larger wells (of a 24-well plate) or divided in order to maintain an approximate constant cell density to promote continuous cell division.”
Quantitative data on the effect of the various compounds on the non-infected cells (cytotoxicity) was obtained by comparison of their growth rate to control cells not exposed to drugs (Table 1). […] In addition, the MOLT-4 cell line was also used.

In another data set the test system is HIV-2. Briefly: Virus titer (TCID) of HIV-2 infected T-cell cultures grown with test compound. The format is cell-based. The following applies: control 10^6; for HIV-2 (TCID): Table 2, 0.10 mg/ml, 10^4 T-45 or MOLT-4 cells (identical results), 10^4 TCID inoculum, after day 10; for VIRUS TITER HIV-2: Table 3, Example 2, 0.1 mg/ml, T-45 and MOLT-4 cells, 10^4 TCID on 10^4 cells. As to the method: Cell free suspensions of the HIV were prepared from infected cultures. The concentration of infectious particles was estimated on end-point titration assay using serial ten-fold dilutions. The approximate number of infectious particles in each preparation was determined by the highest dilution which contains infectious HIV as determined by synctial formation, cytopathicity [Leonard et al., Proc. Natl. Acad. Sci. USA 85, 3570-3574 (1988); Barre-Sinoussi et al., Science 220, 868-870 (1983)] and HIV antigen [Karpas et al., Lancet 1, 695-697 (1985)] synthesis after 10 days of culture with 10^4 T-cells. This represents the concentration of infectious particles, herein defined as the tissue culture infectious dose (TCID).
as §2, §1
That is, HIV-1 was first passaged in T-45 cells; likewise, HIV-1 was first passaged in MOLT-4 cells. The same passaging was done with HIV-2. The test compounds were used at a concentration of 0.1 mg/ml. 10^4 TCID of HIV-1 and separately of HIV-2 were used to infect 10^4 cells. Upon completion of the test, the virus titers were as follows: TABLE 3

Data set [1] concerns B16-F10 murine melanoma cells. Briefly: Incorporation of radiolabeled galactose, mannose, glucose and thymidine into cells. Particulars: result in words; for galactose incorporation into the cells: radiolabeled galactose; for glucose utilization/inhibition: radiolabeled glucose; for mannose utilization: radiolabeled mannose. The format is cell-based.

Read-outs that look alike come from different tables or passages of the source. Where only a bound is given, the exact number is not on record here.

Take `CCCCN1C[C@H](O)[C@@H](O)[C@H](O)[C@H]1CO` [BuDNJ, N-n-butyl-deoxynojirimycin]: the “effect on CPE formation” value with HIV is recorded as “completely prevented CPE in the HIV infected cells at all concentrations tested”. For the same molecule, the “Estimated Cell Growth Virus-uninfected Day 7” value in the data set with T-45 cells (Dosage 0.01 mg/ml) is listed as 1.2x10^6. Besides, the “Estimated Cell Growth Virus-uninfected Day 7” value in the data set on T-45 cells (Dosage 0.05 mg/ml) was 1.2x10^6. Further, in the data set with T-45 cells (Dosage 0.10 mg/ml), the “Estimated Cell Growth Virus-uninfected Day 7” value is 1.4x10^6. Also, the cytotoxicity result in the data set with T-45 cells is “showed no cytotoxicity over the concentration range used”. Further, in the data set with HIV-2, the “HIV-2 (TCID)” value is less than 10 TCID and the “VIRUS TITER HIV-2” value is given as 10. Besides, in data set [1], the “galactose incorporation into the cells” value is “substantially inhibited galactose incorporation into the cells at 1.0 mM or less”, the glucose utilization/inhibition entry is reported as “little or no effect”, the mannose utilization entry is “inhibited mannose utilization” and the “^3H-Thymidine uptake into the cells” value is “not affected by N-butyl-DNJ up to 2.0 mM”.
For the molecule `CN1C[C@H](O)[C@@H](O)[C@H](O)[C@H]1CO` [MeDNJ, N-methyl-deoxynojirimycin], in the data set with HIV, the “effect on CPE formation” value is “bell shaped dose-dependence”. Moreover, the “Estimated Cell Growth Virus-uninfected Day 7” value in the data set with T-45 cells (Dosage 0.01 mg/ml) is given as 1.2x10^6. Moreover, the “Estimated Cell Growth Virus-uninfected Day 7” value in the data set on T-45 cells (Dosage 0.05 mg/ml) is reported as 1.2x10^6. Moreover, in the data set with T-45 cells (Dosage 0.10 mg/ml), the “Estimated Cell Growth Virus-uninfected Day 7” value was 1.0x10^6. In the data set on T-45 cells (Dosage 0.25 mg/ml), the “Estimated Cell Growth Virus-uninfected Day 7” value is recorded as 1.0x10^6. Also, in the data set with T-45 cells (Dosage 0.50 mg/ml), the “Estimated Cell Growth Virus-uninfected Day 7” value was 5.0x10^6. In the data set with T-45 cells, the cytotoxicity entry was “cytotoxic”. Besides, in the data set on HIV-2, the “HIV-2 (TCID)” value is given as 10^2 TCID and the “VIRUS TITER HIV-2” value is listed as 10^2. In addition, in data set [1], the “galactose incorporation into the cells” value is reported as “only slightly inhibitory”; the glucose utilization/inhibition result is given as “inverted dose-response curve”; the mannose utilization entry is given as “either stimulated incorporation or, conservatively, had no effect”; the “^3H-Thymidine uptake into the cells” value is listed as “inhibited incorporation at 1.0 mM”.

These data come from patent EP0324328B1, “Use of the N-n-butyl derivative of desoxynojirimycin in the manufacture of a medicament inhibiting HIV-Virus” (priority 1987, dated 1989).
